According to PubChem BioAssay (NCI):
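These data come from cells grown in 96-well plates and exposed to compound for 48 hours at five concentrations. The concentration for 50% growth inhibition is given as GI50. TGI is the concentration that stops growth completely.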

Tests used:
Assay in all cases: inhibition of tumour cell growth, NCI panel, 48 h
[1] = test system: OVCAR-8 ovarian
[2] = test system: BT-549 breast
[3] = test system: CAKI-1 renal
[4] = test system: RXF 393 renal
[5] = test system: COLO 205 colon
[6] = test system: NCI/ADR-RES ovarian
[7] = test system: SR leukemia
[8] = test system: K-562 leukemia
[9] = test system: CCRF-CEM leukemia
[10] = test system: SK-MEL-2 melanoma
[11] = test system: M14 melanoma
[12] = test system: HCT-15 colon
[13] = test system: OVCAR-5 ovarian
[14] = test system: U251 CNS
[15] = test system: IGROV1 ovarian
[16] = test system: UACC-62 melanoma
[17] = test system: NCI-H226 lung
[18] = test system: SF-539 CNS
[19] = test system: NCI-H460 lung
[20] = test system: EKVX NSCLC
[21] = test system: NCI-H522 lung
[22] = test system: DU-145 prostate
[23] = test system: T-47D breast
[24] = test system: SNB-19 CNS
[25] = test system: HOP-62 NSCLC
[26] = test system: PC-3 prostate
[27] = test system: RPMI-8226 leukemia
[28] = test system: A498 renal
[29] = test system: ACHN renal
[30] = test system: MDA-MB-231 breast
[31] = test system: A549 NSCLC
[32] = test system: HCC-2998 colon
[33] = test system: HS 578T breast
[34] = test system: SK-OV-3 ovarian
[35] = test system: NCI-H23 lung
[36] = test system: 786-0 renal
[37] = test system: KM12 colon
[38] = test system: MCF7 breast
[39] = test system: SK-MEL-5 melanoma
[40] = test system: MDA-MB-435
[41] = test system: OVCAR-3 ovarian
[42] = test system: UO-31 renal
[43] = test system: LOX IMVI melanoma
[44] = test system: SF-295 CNS
[45] = test system: MOLT-4 leukemia
[46] = test system: SW-620 colon
[47] = test system: SN12C renal
[48] = test system: UACC-257 melanoma
[49] = test system: HCT-116 colon
[50] = test system: OVCAR-4 ovarian
[51] = test system: TK-10 renal
[52] = test system: MALME-3M melanoma
[53] = test system: SNB-75 CNS
[54] = test system: SK-MEL-28 melanoma
[55] = test system: SF-268 CNS
[56] = test system: HT29 colon
[57] = test system: HOP-92 NSCLC
[58] = test system: HL-60(TB) leukemia

Compound: CN1CCN(CCCCCN=c2cc3c(=O)n(CCCCCN4CCN(C)CC4)c(=O)c4c(NCCCCCN5CCN(C)CC5)cc5c(O)n(CCCCCN6CCN(C)CC6)c(=O)c2c5c4-3)CC1
- GI50 [1]: 3.92 µM
- TGI [1]: 17.2 µM
- GI50 [2]: 4.34 µM
- TGI [2]: 15.7 µM
- GI50 [3]: > 100 µM
- TGI [3]: > 100 µM
- GI50 [4]: 24.3 µM
- TGI [4]: > 100 µM
- GI50 [5]: 2.31 µM
- TGI [5]: 8.07 µM
- GI50 [6]: > 100 µM
- TGI [6]: > 100 µM
- GI50 [7]: 4.01 µM
- TGI [7]: 25.1 µM
- GI50 [8]: 3.62 µM
- TGI [8]: > 100 µM
- GI50 [9]: 2.69 µM
- TGI [9]: 26 µM
- GI50 [10]: 2.69 µM
- TGI [10]: 7.43 µM
- GI50 [11]: 35 µM
- TGI [11]: > 100 µM
- GI50 [12]: > 100 µM
- TGI [12]: > 100 µM
- GI50 [13]: 2.13 µM
- TGI [13]: 7.79 µM
- GI50 [14]: 2.21 µM
- TGI [14]: 6.68 µM
- GI50 [15]: 5.7 µM
- TGI [15]: 29.4 µM
- GI50 [16]: 4.19 µM
- TGI [16]: 15.7 µM
- GI50 [17]: 3.25 µM
- TGI [17]: 21.6 µM
- GI50 [18]: 2.64 µM
- TGI [18]: 8.32 µM
- GI50 [19]: 3.06 µM
- TGI [19]: 10.2 µM
- GI50 [20]: 2.93 µM
- TGI [20]: 17.2 µM
- GI50 [21]: 1.46 µM
- TGI [21]: 3.93 µM
- GI50 [22]: 3.08 µM
- TGI [22]: 10.3 µM
- GI50 [23]: 3.59 µM
- TGI [23]: 25.4 µM
- GI50 [24]: 2.14 µM
- TGI [24]: 7.16 µM
- GI50 [25]: 2.45 µM
- TGI [25]: 12.2 µM
- GI50 [26]: 3.32 µM
- TGI [26]: 19.4 µM
- GI50 [27]: 3.02 µM
- TGI [27]: 11.3 µM
- GI50 [28]: 19.2 µM
- TGI [28]: 60 µM
- GI50 [29]: 43.3 µM
- TGI [29]: > 100 µM
- GI50 [30]: 2.38 µM
- TGI [30]: 7.22 µM
- GI50 [31]: 2.92 µM
- TGI [31]: 8.64 µM
- GI50 [32]: 5.79 µM
- TGI [32]: 24.4 µM
- GI50 [33]: 2.64 µM
- TGI [33]: 6.86 µM
- GI50 [34]: 2.03 µM
- TGI [34]: 5.62 µM
- GI50 [35]: 6.65 µM
- TGI [35]: 46.3 µM
- GI50 [36]: > 100 µM
- TGI [36]: > 100 µM
- GI50 [37]: 2.49 µM
- TGI [37]: 8.39 µM
- GI50 [38]: 2.52 µM
- TGI [38]: 7.41 µM
- GI50 [39]: 14.1 µM
- TGI [39]: 58.8 µM
- GI50 [40]: 2.7 µM
- TGI [40]: 8.73 µM
- GI50 [41]: 3.23 µM
- TGI [41]: 9.92 µM
- GI50 [42]: 75 µM
- TGI [42]: > 100 µM
- GI50 [43]: 2.94 µM
- TGI [43]: 12.8 µM
- GI50 [44]: 15.7 µM
- TGI [44]: 57.2 µM
- GI50 [45]: 4.85 µM
- TGI [45]: > 100 µM
- GI50 [46]: 3.31 µM
- TGI [46]: 31.6 µM
- GI50 [47]: 2.55 µM
- TGI [47]: 9.73 µM
- GI50 [48]: 2.6 µM
- TGI [48]: 6.56 µM
- GI50 [49]: 3.31 µM
- TGI [49]: 17.3 µM
- GI50 [50]: 2.22 µM
- TGI [50]: 5.61 µM
- GI50 [51]: 10.6 µM
- TGI [51]: 77.2 µM
- GI50 [52]: 2.55 µM
- TGI [52]: 5.98 µM
- GI50 [53]: 2.66 µM
- TGI [53]: 10.2 µM
- GI50 [54]: 2.96 µM
- TGI [54]: 8.14 µM
- GI50 [55]: 2.07 µM
- TGI [55]: 6.09 µM
- GI50 [56]: 1.45 µM
- TGI [56]: 5.31 µM
- GI50 [57]: 1.84 µM
- TGI [57]: 7.39 µM
- GI50 [58]: 7.16 µM
- TGI [58]: 59 µM
